Test results from PubChem BioAssay (NCI).
Several values for one entry are separate records, joined by “and”; a condition that tells them apart may be missing. Equal entries are not always repeated.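 Results reflect a 48-hour exposure of cells in 96-well plates to compound at five concentrations. GI50 is the concentration that inhibits growth by half. TGI denotes the concentration required for complete inhibition of growth.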

Test system: MDA-MB-468 breast
Assay: DTP human tumour cell line panel, 48 h

Compound	GI50	TGI
C[C@@H]1Cc2c([nH]c3ccccc23)[C@@H](c2c(F)cc(NC3CN(CCCF)C3)cc2F)N1CC(F)(F)CO	1.95 µM	4.86 µM
Cc1cc2cn3c4ccc(O)cc4[nH]c(=O)c3c2cc1C	0.178 µM	0.772 µM
CCCc1cc2cc(-n3nc(CC)c4c3CC(C)(C)CC4=O)cc(NC3CCC(O)CC3)c2c(=O)[nH]1 (stereo not drawn)	0.212 µM	> 100 µM
Nc1ccccc1NC(=O)c1ccc(CCCC(=O)Nc2ccc(C3CC3N)cc2)cc1 (stereo not drawn)	1.62 µM	4.53 µM
COc1cc(OC)c(/C=C/S(=O)(=O)Cc2ccc(OC)c(NC(=O)CCC(=O)NO)c2)c(OC)c1	0.0549 µM	> 100 µM
CCn1cc(-c2ccnc3[nH]ccc23)c(-c2cccc(NC(=O)Nc3ccc(OCc4ccccc4)cc3)c2)n1	18.2 µM	> 25 µM
Cc1cc(Nc2c3ccccc3nc3ccccc23)ccc1NS(C)(=O)=O	2.29 µM	8.81 µM
O=[N+]([O-])c1ccccc1NC1c2ccccc2Oc2ccccc21	2.21 µM	5.4 µM
Cc1nccc2c3ccc(OCc4cn(-c5ccc(Cl)cc5)nn4)cc3n(CCCc3ccccc3)c12	6.07 µM	19.1 µM
O=C(/C=C/C=C/c1c(C2CC2)nc2ccccc2c1-c1ccc(F)cc1)c1cccs1	2.75 µM	> 100 µM
CCCCCCCCCCCCCCCC[N+](C)(CCO)Cc1cnc[nH]1 (stereo not drawn)	0.396 µM	10.1 µM
O=C(O)CCC/C=C\C[C@H]1C=CC(=O)/C1=C/C[C@@H](O)CCc1cccc(C(F)(F)F)c1	1.24 µM	3.27 µM
O=C(NCCCNc1cc(-c2cn(-c3ccccc3)nc2-c2cccc(O)c2)ccn1)Nc1ccc(F)cc1	1.18 µM	4.66 µM
N#CSc1c[nH]c2ccc(/C=C/C(=O)/C=C(/C=C/c3ccc4[nH]cc(SC#N)c4c3)OB(F)F)cc12	0.91 µM	4.09 µM
CCCCCCCCCc1cc[n+](CC(=O)c2ccc([N+](=O)[O-])cc2)cc1	0.446 µM	1.75 µM
COC1=CC(=O)C(OC)=C(OC)C1=O	1.61 µM	3.16 µM
CS(=O)(=O)Nc1cccc(-c2cc(-c3ccccc3Cl)c(C#N)c(N)n2)c1	1.19 µM	7.75 µM
Oc1cccc2ccc(-c3nnc(SCc4ccc(O)c5ncccc45)n3-c3ccccc3)nc12	0.813 µM	9.52 µM
CN(C)c1ncc(-c2ccc(C(F)(F)F)cc2)c(NC2CCCCCC2)n1	14.3 µM	37.1 µM
N#CC(C#N)N=Nc1ccc(Br)cc1	1.01 µM	5.1 µM
CN(C)C/C=C/C(=O)Nc1cc2c(Nc3ccc(F)c(Cl)c3F)ncnc2cc1OCCOC(F)F	< 0.01 µM	
CC(=O)N1c2ccccc2NC2=C(C(=O)N(Cc3ccccc3)C2(C)C)C1c1ccco1 (stereo not drawn)	0.0897 µM	> 25 µM
Nc1ncnc2c1c(-c1cccc(OCc3ccccc3)c1)cn2C1CC(CN2CCC2)C1 (stereo not drawn)	1.96 µM and 2.14 µM	5.98 µM and 8.79 µM
CS(=O)(=O)CCNCc1ccc(-c2ccc3ncnc(Nc4ccc(OCc5cccc(F)c5)c(C(F)(F)F)c4)c3c2)o1	1.42 µM	6.09 µM
Cc1cc(O)c(C2=NN(c3ccc(S(N)(=O)=O)cc3)C(c3ccc(N(C)C)cc3)C2)c(C)c1Cl (stereo not drawn)	17.1 µM	33.8 µM
CCC(=C(c1ccc(OCCN(C)C)cc1)c1ccc(OCCN(C)C)cc1)c1ccc(Cl)cc1	2.95 µM	6.7 µM
CC(C)CC(=O)Nc1n[nH]c2c1CN(C(=O)C1CCN(C)CC1)C2(C)C	1.13 µM	5.18 µM
